In US11939583B2, “Method of producing autotrophic organisms with altered photorespiration and improved CO2 fixation” (Max-Planck-Gesellschaft zur Förderung der Wissenschaften …, priority 2018, dated 2024):

Experiments:
[1] = molecular target: T1, β-hydroxyaspartate dehydratase (BHAD) (Paracoccus denitrificans, UniProt A1B8Z2); assay: Enzyme assay, kinetic parameters of BHAD; assay type: biochemical, Paracoccus denitrificans DSM 413; settings: 30° C., pH 7.5, ISRed as coupling enzyme
T1 construct: His-tag (N); made in house; host or cells: E. coli BL21 AI
Protocol: (§1) In all enzyme assays, the oxidation of NADH or NADPH was followed at 340 nm or 360 nm on a Cary 60 UV-Vis photospectrometer (Agilent, Santa Clara, USA) in quartz cuvettes with a path length of 1 mm or 10 mm (Hellma Optik GmbH, Jena, Germany).
The enzyme assay to determine the kinetic parameters of BHAD was performed at 30° C. in a total volume of 300 μl. The reaction mixture contained 100 mM phosphate buffer pH 7.5, 0.1 mM PLP, 0.2 mM NADH, varying amounts of the substrate (2R,35)-β-hydroxyaspartate, and 29 nM BHAD. ISRed was added in excess as coupling enzyme to convert iminosuccinate into L-aspartate. (2R,3S)-β-Hydroxyaspartate was custom-synthesized by NewChem (Newcastle upon Tyne, United Kingdom), and was determined to be >95% pure by NMR analysis.

[2] = molecular target: T2, β-hydroxyaspartate aldolase (BHAA) (Paracoccus denitrificans, UniProt A1B8Z1); assay: Enzyme assay, kinetic parameters of BHAA; assay type: biochemical, Paracoccus denitrificans DSM 413; settings: 30° C., pH 7.5, glycine with 5 mM glyoxylate, glyoxylate with 20 mM glycine
T2 construct: His-tag (N); made in house; host or cells: E. coli BL21 AI
T2 sequence (A1B8Z1 1-387): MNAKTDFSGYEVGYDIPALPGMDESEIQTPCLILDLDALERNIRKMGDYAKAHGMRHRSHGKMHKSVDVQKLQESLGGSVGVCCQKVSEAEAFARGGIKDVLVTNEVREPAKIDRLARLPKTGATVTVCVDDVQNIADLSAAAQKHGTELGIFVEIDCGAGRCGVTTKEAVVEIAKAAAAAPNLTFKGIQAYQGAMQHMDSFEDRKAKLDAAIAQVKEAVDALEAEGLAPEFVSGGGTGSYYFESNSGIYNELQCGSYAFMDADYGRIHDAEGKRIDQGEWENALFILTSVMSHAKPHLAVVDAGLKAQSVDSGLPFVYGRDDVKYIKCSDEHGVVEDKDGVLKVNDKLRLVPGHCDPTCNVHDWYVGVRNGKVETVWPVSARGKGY
Protocol: as §1
The reaction mixture contained 100 mM potassium phosphate buffer pH 7.5, 0.1 mM PLP, 0.2 mM NADH, 0.5 mM MgCl2, varying amounts of the respective substrates, and 4 nM BHAA. BHAD and ISRed were added in excess as coupling enzymes. […] To determine the kinetic parameters with (2R,3S)-β-hydroxyaspartate as substrate, the same assay mixture was used and GhrA was added in excess as coupling enzyme to convert glyoxylate into glycolate. To determine the kinetic parameters with D-threonine as substrate, the same assay mixture was used and alcohol dehydrogenase from Saccharomyces cerevisiae (Sigma-Aldrich, St. Louis, USA) was added in excess as coupling enzyme to convert acetaldehyde into ethanol.

[3] = system: Pbhc-BhcR complex; assay: Electrophoretic mobility shift assay, effect of glyoxylate on complex formation; assay type: binding, P. denitrificans DSM 413; settings: increasing concentrations of glyoxylate (0.01-1 mM), EMSA, FIG. 5
Excerpt: Fluorescently labeled DNA fragments for electrophoretic mobility shift assays (EMSA) were generated by PCR from genomic DNA of P. denitrificans DSM 413. For the Pbhc regulatory region, primers Pbhc_fw and Pbhc_rev-dye were used to generate a 238-bp fragment containing the putative Pbhc promoter. The primers AGAT-Fw and AGAT_rev-dye were used to generate a 255-bp fragment containing a fragment of the AGAT gene as negative controle. Pbhc rev dye and AGAT rev dye were 5′-labelled with the Dyomics 781 fluorescent dye (Microsynth AG, Balgach, Switzerland). Binding reactions between the DNA fragments (0.025 pmol), various amounts of the purified protein BhcR (400x/2,000x/4,000x/10,000x/20,000x/40,000x molar excess), and various concentrations of glyoxylate (0.01/0.05/0.1/0.2/0.5/1 mM final concentration) were performed in buffer A (20 mM potassium phosphate pH 7.0, 1 mM DTT, 5 mM MgCl2, 50 mM KCl, 15 μg mL^−1 bovine serum albumin, 50 μg mL^−1 herring sperm DNA, 5% v/v glycerol, 0.1% Tween20) in a total volume of 20 μL. After incubation of the reaction mixtures at 37° C. for 20 min, the samples were loaded onto a native 5% polyacrylamide gel and electrophoretically separated at 110 V for 60 min. BhcR:DNA-interactions were detected using an Odyssey FC Imaging System (LI-COR Biosciences, Lincoln, USA).

[4] = molecular target: T3, iminosuccinate reductase (ISRed) (Paracoccus denitrificans, UniProt A1B8Z0); assay: Enzyme assay, apparent kinetic parameters of ISRed; assay type: biochemical, Paracoccus denitrificans DSM 413; settings: 30° C.; for Km: pH 7.5, cofactors measured with 2 mM (2R,3S)-β-hydroxyaspartate and BHAD, read-out: app. KM
T3 construct: His-tag (N); made in house; host or cells: E. coli BL21 AI
Protocol: as §1
The enzyme assay to determine the apparent kinetic parameters of ISRed was performed at 30° C. in a total volume of 250 μL. The reaction mixture contained 100 mM potassium phosphate buffer pH 7.5, 0.2 mM NADH, 0.1 mM PLP, varying amounts of (2R,3S)-β-hydroxyaspartate, and appropriate amounts of the enzymes BHAD and ISRed. Kinetics for iminosuccinate were measured with 15 nM ISRed, and appropriate amounts of (2R,3S)-β-hydroxyaspartate and BHAD to generate the desired concentrations of iminosuccinate at the onset of the reaction. Kinetics for NADH and NADPH were measured with 2 mM (2R,3S)-β-hydroxyaspartate, 214 nM BHAD, 28 nM ISRed, and varying amounts of the respective cofactor.

[5] = molecular target: T4, aspartate-glyoxylate aminotransferase (AGAT) (Paracoccus denitrificans, UniProt A1B8Z3); assay: Enzyme assay, kinetic parameters of AGAT; assay type: biochemical, Paracoccus denitrificans DSM 413; settings: 30° C., pH 7.5, co-substrate fixed (20 mM L-aspartate, 5 mM glyoxylate, 20 mM oxaloacetate or 30 mM glycine); for Km: read-out: app. KM
T4 construct: His-tag (N); made in house; host or cells: E. coli BL21 AI
T4 sequence (A1B8Z3 1-396): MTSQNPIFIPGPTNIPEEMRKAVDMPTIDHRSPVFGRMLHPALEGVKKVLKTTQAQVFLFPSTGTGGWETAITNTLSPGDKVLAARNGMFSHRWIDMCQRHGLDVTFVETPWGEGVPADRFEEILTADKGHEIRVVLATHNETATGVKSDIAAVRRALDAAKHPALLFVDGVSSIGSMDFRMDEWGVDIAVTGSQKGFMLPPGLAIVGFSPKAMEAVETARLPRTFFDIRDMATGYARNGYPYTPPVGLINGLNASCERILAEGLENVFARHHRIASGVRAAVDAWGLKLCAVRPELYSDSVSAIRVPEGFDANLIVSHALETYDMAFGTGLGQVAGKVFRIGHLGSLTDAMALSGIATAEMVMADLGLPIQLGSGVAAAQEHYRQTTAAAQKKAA
Protocol: as §1
(§2) The enzyme assay to determine the kinetic parameters of AGAT with glyoxylate and L-aspartate as substrates was performed at 30° C. in a total volume of 300 μl. The reaction mixture contained 100 mM potassium phosphate buffer pH 7.5, 0.1 mM PLP, 0.2 mM NADH, varying amounts of the respective substrates, and 32 nM AGAT. Mdh was added in excess as coupling enzyme to convert oxaloacetate into malate. Kinetics for glyoxylate were measured with 20 mM L-aspartate; kinetics for L-aspartate were measured with 5 mM glyoxylate. To determine the kinetic parameters with oxaloacetate and glycine as substrates, the same assay mixture was used and GhrA was added in excess as coupling enzyme to convert glyoxylate into glycolate. […] To determine the kinetic parameters with L-serine or L-glutamate and glyoxylate as substrates, the same assay mixture was used and BHAD, BHAA, and Mdh were added in excess as coupling enzymes. Kinetics for L-serine and L-glutamate were measured with 5 mM glyoxylate.

[6] = system: expression levels of enzymes of the BHAP; assay: Whole-cell shotgun proteomics, glycolate-grown vs. acetate-grown cells; assay type: cell-based, P. denitrificans; settings: cells grown on 60 mM glycolate compared to 60 mM acetate, FIG. 4
Protocol: To acquire the proteome of P. denitrificans growing on different carbon sources, 20 mL cultures were grown to mid-exponential phase (OD600 ˜0.5) in minimal medium supplemented with 60 mM acetate or 60 mM glycolate. 4 replicate cultures were grown for each carbon source. Main cultures were inoculated from precultures grown in the same medium in a 1:1,000 dilution. Cultures were harvested by centrifugation at 4,000× g and 4° C. for 15 min. Supernatant was discarded and pellets were washed in 40 mL phosphate buffered saline (PBS; 137 mM NaCl, 2.7 mM KCl, 10 mM Na2HPO4, 1.8 mM KH2PO4, pH 7.4). […] Cell pellets in Eppendorf tubes were snap-frozen in liquid nitrogen and stored at −80° C. until they were used for the preparation of samples for LC-MS analysis and label-free quantification.
For whole cell lysis, cell pellets were first resuspended in 200 μL NH4HCO3 (100 mM supplemented with 5% SDS). […] Protein concentration in samples was determined via Pierce™ BCA assay (Thermo Scientific). […] Peptide mixes were recovered in 2% DMSO and then in 0.5% trifluoracetic acid (TFA) and analyzed via LC-MS on an electrospray ion source-connected Thermo QExactive Plus mass spectrometer (Thermo Scientific). […] Label-free data quantification was performed according to (Nature 2011, 473, 337; Proteomics 2013, 13, 2567; and J Proteome Res 2015, 14, 4472). […]

[7] = substrate: NCC(=O)O; assay: purified protein, by the assay type; settings: other: enzyme AGAT, 30° C., pH 7.5, co-substrate fixed (20 mM L-aspartate, 5 mM glyoxylate, 20 mM oxaloacetate or 30 mM glycine)
[8] = substrate: O=CC(=O)O; assay: Enzyme assay, kinetic parameters of AGAT; assay type: biochemical, Paracoccus denitrificans DSM 413; settings: other: enzyme AGAT, 30° C., pH 7.5, co-substrate fixed (20 mM L-aspartate, 5 mM glyoxylate, 20 mM oxaloacetate or 30 mM glycine)
Protocol: as §1, §2

[9] = substrate: N[C@@H](CO)C(=O)O; assay: Enzyme assay, kinetic parameters of AGAT; assay type: biochemical, Paracoccus denitrificans DSM 413; settings: other: enzyme AGAT, 30° C., pH 7.5, co-substrate fixed (20 mM L-aspartate, 5 mM glyoxylate, 20 mM oxaloacetate or 30 mM glycine)
Protocol: as §1, §2

[10] = substrate: O=C(O)CC(=O)C(=O)O; assay: Enzyme assay, kinetic parameters of AGAT; assay type: biochemical, Paracoccus denitrificans DSM 413; settings: other: enzyme AGAT, 30° C., pH 7.5, co-substrate fixed (20 mM L-aspartate, 5 mM glyoxylate, 20 mM oxaloacetate or 30 mM glycine)
Protocol: as §1, §2

`N[C@@H](C(=O)O)[C@H](O)C(=O)O` [(2R,3S)-β-hydroxyaspartate] showed an app. kcat [1] of 35.01 ± 0.82 s⁻¹, a Km ([1]; read-out: app. KM) of 200 ± 20 µM and an app. kcat [2] of 33.11 ± 1.29 s⁻¹. It also gave a Km ([2]; read-out: app. KM) of 280 ± 30 µM.

With `O=CC(=O)O` [Glyoxylate] the “effect on binding of BHAR to the promoter region” value [3] was “binding was decreased”.

For `N=C(CC(=O)O)C(=O)O` [Iminosuccinate], the Km [4] was 88 ± 10 µM and the app. kcat ([4]; pH 7.5, iminosuccinate generated from (2R,3S)-β-hydroxyaspartate by BHAD) was 201.04 ± 10.20 s⁻¹.

Molecule `N[C@@H](CC(=O)O)C(=O)O` [L-Aspartate] has an app. kcat [5] of 56.36 ± 0.73 s⁻¹ and a Km [5] of 2510 ± 100 µM.

In the case of `N[C@@H](CCC(=O)O)C(=O)O` [L-Glutamate], the app. kcat [5] is reported as 5.03 ± 0.26 s⁻¹ and the Km [5] is reported as 20600 ± 2330 µM.

For `NC(=O)C1=CN([C@@H]2O[C@H](COP(=O)(O)OP(=O)(O)OC[C@H]3O[C@@H](n4cnc5c(N)ncnc54)[C@H](O)[C@@H]3O)[C@@H](O)[C@H]2O)C=CC1` [NADH], the Km [4] was 23 ± 3 µM.

`O=C(O)CO` [glycolate] was tested, and the “expression of all four enzymes of the BHAP” value [6] was “strongly increased expression”.

NADPH showed a Km [4] of 330 ± 50 µM.

B1: aspartate-glyoxylate aminotransferase (AGAT) (Paracoccus denitrificans PD1222) (protein)
chain: MTSQNPIFIPGPTNIPEEMRKAVDMPTIDHRSPVFGRMLHPALEGVKKVLKTTQAQVFLFPSTGTGGWETAITNTLSPGDKVLAARNGMFSHRWIDMCQRHGLDVTFVETPWGEGVPADRFEEILTADKGHEIRVVLATHNETATGVKSDIAAVRRALDAAKHPALLFVDGVSSIGSMDFRMDEWGVDIAVTGSQKGFMLPPGLAIVGFSPKAMEAVETARLPRTFFDIRDMATGYARNGYPYTPPVGLINGLNASCERILAEGLENVFARHHRIASGVRAAVDAWGLKLCAVRPELYSDSVSAIRVPEGFDANLIVSHALETYDMAFGTGLGQVAGKVFRIGHLGSLTDAMALSGIATAEMVMADLGLPIQLGSGVAAAQEHYRQTTAAAQKKAA
notes: His-tag (N); made in house; host or cells: E. coli BL21 AI
Work on B1 yielded a Km [7] of 9520 ± 400 µM, a kcat [7] of 0.76 s⁻¹ and a kcat/Km [7] of 79.7 M⁻¹ s⁻¹. The Km [8] was 430 ± 20 µM, the kcat [8] was 58.1 ± 0.82 s⁻¹ and the kcat/Km [8] was 134000 M⁻¹ s⁻¹. For the same molecule, the Km [9] was 2100 ± 240 µM, the kcat [9] was 8.82 ± 0.31 s⁻¹ and the kcat/Km [9] was 4200 M⁻¹ s⁻¹. The Km [10] was 2900 ± 270 µM, the kcat [10] was 0.76 ± 0.02 s⁻¹ and the kcat/Km [10] was 262 M⁻¹ s⁻¹.
